# Assay results: article PMC11475408, “All‐Inorganic Polyoxometalates Act as Superchaotropic Membrane Carriers” (Advanced Materials (Deerfield Beach, Fla.), 2023)
# What was measured:
# [1] = CF transport assay in EYPC⊃CF vesicles (carrier activity); assay type: biochemical; design: key to Carrier activity: ‐ – ‐: No detectable activity at pH 5.5 and 7.4
# Text: The capability of POMs to act as membrane carriers was explored first in large unilamellar vesicles (LUVs) loaded with carboxyfluorescein (CF).^[ [54], [55] ^] We selected […] representative cationic peptides, heptaarginine (heptaArg), heptalysine (heptaLys), protamine, and polyarginine (polyArg), as test cargos. Inside the LUVs, the CF dye was encapsulated at self‐quenching concentrations. With a suitable carrier, heptaArg can be taken up into the vesicles, bind with entrapped CF, and shuttle back to the exterior, diluting the previously quenched CF, and thereby restoring its fluorescence (Figure 1c). In the time‐resolved fluorescence experiments (Figure 2a), to test whether a particular POM acts as molecular carrier, the CF emission was continuously monitored during the addition of the inorganic carrier (t = 60 s) and after injection of the impermeable selected cargo (t = 120 s). Toward the end of the experiment (t = 600 s), the surfactant Triton X‐100 was added to release all the entrapped CF and allow normalization of the intensity data.
# A thin lipid film was prepared by evaporating a lipid solution of EYPC (egg yolk phosphatidylcholine, 25 mg) in CHCl3 (1 mL) with a stream of nitrogen and then dried in vacuo overnight. The dry film was rehydrated with 1 mL buffer (50 mM CF, 10 mM Hepes, pH 7.4 or 50 mM CF, 10 mM Tris, pH 7.4) for 30 min at room temperature, subjected to freeze–thaw cycles (7 times) and extrusions (15 times) through a polycarbonate membrane (pore size 100 nm). Extravesicular components were removed by size exclusion chromatography (NAP‐25 column Sephadex G‐25 DNA grade) with 10 mM Hepes, 107 mM NaCl, pH 7.4, or 10 mM Hepes, 107 mM NaCl, pH 7.4. Phospholipid concentration was calculated by the Stewart assay.^[ [81] ^]
# Acidic vesicles were prepared analogously but the rehydration and elution buffer were 50 mM CF, 10 mM Mes, pH 5.5 and 10 mM Mes, 107 mM NaCl, pH 5.5. respectively.
# Vesicles stock solutions (5–10 µL) were diluted with the corresponding buffer in a disposable plastic cuvette and gently stirred (total volume 2000 µL, final lipid concentration 13 µM). Carboxyfluorescein fluorescence was monitored at λ em = 517 nm (λ ex = 492 nm) as a function of time after addition of POMs at 60 s, analyte at 120 s and Triton X‐100 (24 µL 1.2% wt/vol) at 600 s to lyse the vesicles, for calibration. Fluorescence intensities were normalized to fractional emission as (1) It=It−I0/I∞−I0 where I 0 = I t before POM addition and […] after lysis. For Hill analysis, I t before lysis was defined as transport activity, Y, and plotted against POM concentration, c, and fitted to the Hill Equation (2), to afford the activity in absence of POM, Y 0, the maximal activity, Y max, the concentration needed to achieve 50% of maximal activity, EC 50, and the Hill coefficient, n (2) Y=Y0+Ymax−Y0/1+EC50/c^n
# In the transport measurements, where different carriers (POMs) are tested with the same cargo, the activator efficiency (E) is determined by their capacity to transport the impermeable cargo to the intravesicular region and is characterized by Y max, its maximal activity, and EC 50, the effective activator concentration. An ideal carrier reaches high Y max at low EC 50. To count both factors, the activator efficiency is defined as (3) E=YmaxpEC50/f were pEC 50 is the negative logarithm of the EC 50, and f a scaling factor, which was set to 20.6 to calibrate the highest (previously known) activation efficiency, E, as 10.^[ [55] ^]
# [2] = Hydrolysis/stability of POMs in buffer by NMR
# Procedure: First, their long‐term (24 h and longer) fate in aqueous solution (slightly acidic and neutral) was investigated by applying the active NMR nuclei in their composition (Table S9 and Figures S24–S37, see the Supporting Information for details).
# NMR-spectroscopic characterization of identity and stability
# NMR spectroscopy for all POMs tested was performed under experimental conditions.
# protamine = experiment: Supramolecular tandem assay of protamine hydrolysis (CX4/LCG); assay type: biochemical; details: time scale of transport experiments (10 min); 0.5 µM protamine, LCG/CX4 reporter, 10 mM Hepes pH 7.5; POM 0-500 µM
# Procedure: 5. Hydrolytic activity of [(PZrW11)2]8−
# We devised a supramolecular tandem enzyme assay[25-29] to check to which degree [(PZrW11)2]8− promotes peptide fragmentation, which has been reported to occur on a time scale of days at 60 °C.[30-31] Supramolecular tandem assay is a technique that allows real-time continuous monitoring of enzymatic activity by following a change in the concentration of a substrate or product as it competitively displaces a fluorescent reporter dye from the cavity of a macrocyclic host.
# The assay therefore relies on the differential binding of the macrocycle with the fluorescent dye, the enzymatic substrate, and the corresponding product.
# We selected p-sulfonatocalix[4]arene (CX4) as macrocyclic host and lucigenin (LCG) as fluorescent dye, since protamine […]
# conversion can be directly monitored through a decrease in fluorescence. Trypsin, which is an endopeptidase that hydrolyzes peptide bonds on the C -terminal side of the amino acid arginine ,[32-33] was used as an example, for comparison.
# Only minor hydrolysis (<10%) of protamine by the [(PZrW11)2]8− was observed on the time scale relevant for the transport […]
# [3] = 3 mM POM, 10 mM Hepes pH 7.5, 31P NMR integration
substance,measurement,setting,value
(Et2NH2)8[{α‐P^VW^VI 11O39Zr^IV(µ‐OH)(H2O)}2]·7H2O [[(PZrW11)2]^8‒],Carrier activity,"[1]; EYPC vesicles, pH 5.5 and 7.4, cargos heptaArg, protamine, polyArg ([AlMo6]: heptaArg and protamine only)",‐ – ‐ ^k)
same,Transport activity (in words),"[1]; EYPC⊃CF vesicles, neutral pH, carrier then cargo",neither transport activity nor membrane disruption was observed
same,"% parent anion, Hepes pH 7.5 after 1 day",[2]; [3],99%
same,"% parent anion, Hepes pH 7.5 freshly prepared",[2]; [3],99%
same,Hydrolysis/stability pH 7.5,"[2]; 10 mM Hepes or Tris, 107 mM NaCl, pH 7.4, NMR, long-term (24 h and longer)",Stable
same,Stability at pH 7.5 by NMR (in words),"[2]; Hepes or Tris-HCl pH 7.5, 27Al, 31P or 183W NMR, fresh and aged 1-3 days",remain unchanged
same,Hydrolysis of protamine by the POM,protamine,< 10%
